Laboratory results taken from patent US10253029B2, “Dual-warhead covalent inhibitors of FGFR-4” (Newave Pharmaceutical Inc., priority 2015, dated 2019).

Tests used:
[1] = tested on: patient-derived liver cancer cell line LIXC012; assay: Antiproliferative activity, ATPlite Luminescence Assay; type: cell-based; conditions: FGF19-overexpressing LIXC012 cells, about 72 hours, 5% FBS; read-out: LIXC012 IC50 (cellular antiproliferative)
Method: The antiproliferative activity of compounds are assessed in the patient-derived liver cancer cell line LIXC012 (Shanghai ChemPartner Co., LTD) by PerkinElmer ATPlite™ Luminescence Assay System. LIXC012 cell line has a FGFR-4 aberrant signaling pathway (FGF19-overexpressing). Briefly, the various test cancer cell lines are plated at a density of about 1×10^4 cells per well in Costar 96-well plates, and are incubated with different concentrations of compounds for about 72 hours in medium supplemented with 5% FBS. One lyophilized substrate solution vial is then reconstituted by adding 5 mL of substrate buffer solution, and is agitated gently until the solution is homogeneous. About 50 μL of mammalian cell lysis solution is added to 100 μL of cell suspension per well of a microplate, and the plate is shaken for about five minutes in an orbital shaker at ˜700 rpm. This procedure is used to lyse the cells and to stabilize the ATP. Next, 50 μL substrate solution is added to the wells and microplate is shaken for five minutes in an orbital shaker at ˜700 rpm. Finally, the luminescence is measured by a PerkinElmer TopCount® Microplate Scintillation Counter. Such assays, carried out with a range of doses of test compounds, allow the determination of the cellular anti-antiproliferative IC50 of the compounds of the present invention. The following table lists the IC50 values of certain compounds of the invention in the FGF19-overexpressing Patient-Derived liver cancer cell line LIXC012.

wild type FGFR-3 = molecular target: T1, wild type FGFR-3 (Homo sapiens, UniProt P22607); assay: FGFR-3 wild type assay at Km (Caliper mobility shift); type: biochemical; conditions: wild type FGFR-3, 400 uM ATP, 25 C, 90 minutes
T1 construct: purchased Carna Biosciences, Inc
Method: (§1) In order to assess the activity of chemical compounds against the relevant kinase of interest, the Caliper LifeSciences electrophoretic mobility shift technology platform is utilized. Fluorescently labeled substrate peptide is incubated in the presence dosed levels of compounds, a set concentration of kinase and of ATP, so that a reflective proportion of the peptide is phosphorylated. At the end of the reaction, the mix of phosphorylated (product) and non-phosphorylated (substrate) peptides are passed through the microfluidic system of the Caliper LabChip® EZ Reader II, under an applied potential difference. The presence of the phosphate group on the product peptide provides a difference in mass and charge between the product peptide and the substrate peptide, resulting in a separation of the substrate and product pools in the sample. As the pools pass the LEDS within the instrument, these pools are detected and resolved as separate peaks. The ratio between these peaks therefore reflects the activity of the chemical matter at that concentration in that well, under those conditions. […]

wild type FGFR-4 = molecular target: T2, wild type FGFR-4 (Homo sapiens, UniProt P22455); assay: FGFR-4 wild type assay at Km (Caliper mobility shift); type: biochemical; conditions: wild type FGFR-4, 400 uM ATP, 25 C, 90 minutes
T2 construct: purchased Carna Biosciences, Inc
Method: In order to assess the activity of chemical compounds against the relevant kinase of interest, the Caliper LifeSciences electrophoretic mobility shift technology platform is utilized. Fluorescently labeled substrate peptide is incubated in the presence dosed levels of compounds, a set concentration of kinase and of ATP, so that a reflective proportion of the peptide is phosphorylated. At the end of the reaction, the mix of phosphorylated (product) and non-phosphorylated (substrate) peptides are passed through the microfluidic system of the Caliper LabChip® EZ Reader II, under an applied potential difference. The presence of the phosphate group on the product peptide provides a difference in mass and charge between the product peptide and the substrate peptide, resulting in a separation of the substrate and product pools in the sample. As the pools pass the LEDS within the instrument, these pools are detected and resolved as separate peaks. The ratio between these peaks therefore reflects the activity of the chemical matter at that concentration in that well, under those conditions.
FGFR-4 wild type assay at Km: In each well of a 384-well plate, 0.5 ng/ul of wild type FGFR-4 (Carna Biosciences, Inc.) was incubated in a total of 12.5 ul of buffer (100 mM HEPES pH 7.5, 0.015% Brij 35, 10 mM MgCl2, ImM DTT) with 1 uM CSKtide (5-FAM-KKKKEEIYFFFG-NH2) and 400 uM ATP at 25 C for 90 minutes in the presence or absence of a dosed concentration series of compound (1% DMSO final concentration). The reaction was stopped by the addition of 70 ul of Stop buffer (100 mM HEPES pH 7.5, 0.015% Brij 35, 35 mM EDTA and 0.2% of Coating Reagent 3 (Caliper Lifesciences)). The plate was then read on a Caliper LabChip® EZ Reader II (protocol settings: −1.9 psi, upstream voltage −700, downstream voltage −3000, post sample sip 35 s).
Such assays, carried out with a range of doses of test compounds, allow the determination of an approximate IC50 value. […] The following table lists the IC50 values of certain compounds of the invention.

wild type FGFR-1 = molecular target: T3, wild type FGFR-1 (Homo sapiens, UniProt P11362); assay: FGFR-1 wild type assay at Km (Caliper mobility shift); type: biochemical; conditions: wild type FGFR-1, 400 uM ATP, 25 C, 90 minutes
T3 construct: purchased Carna Biosciences, Inc
Method: as §1

wild type FGFR-2 = molecular target: T4, wild type FGFR-2 (Homo sapiens, UniProt P21802); assay: FGFR-2 wild type assay at Km (Caliper mobility shift); type: biochemical; conditions: wild type FGFR-2, 400 uM ATP, 25 C, 90 minutes
T4 construct: purchased Carna Biosciences, Inc
Method: as §1

T2 sequence (P22455 22-802): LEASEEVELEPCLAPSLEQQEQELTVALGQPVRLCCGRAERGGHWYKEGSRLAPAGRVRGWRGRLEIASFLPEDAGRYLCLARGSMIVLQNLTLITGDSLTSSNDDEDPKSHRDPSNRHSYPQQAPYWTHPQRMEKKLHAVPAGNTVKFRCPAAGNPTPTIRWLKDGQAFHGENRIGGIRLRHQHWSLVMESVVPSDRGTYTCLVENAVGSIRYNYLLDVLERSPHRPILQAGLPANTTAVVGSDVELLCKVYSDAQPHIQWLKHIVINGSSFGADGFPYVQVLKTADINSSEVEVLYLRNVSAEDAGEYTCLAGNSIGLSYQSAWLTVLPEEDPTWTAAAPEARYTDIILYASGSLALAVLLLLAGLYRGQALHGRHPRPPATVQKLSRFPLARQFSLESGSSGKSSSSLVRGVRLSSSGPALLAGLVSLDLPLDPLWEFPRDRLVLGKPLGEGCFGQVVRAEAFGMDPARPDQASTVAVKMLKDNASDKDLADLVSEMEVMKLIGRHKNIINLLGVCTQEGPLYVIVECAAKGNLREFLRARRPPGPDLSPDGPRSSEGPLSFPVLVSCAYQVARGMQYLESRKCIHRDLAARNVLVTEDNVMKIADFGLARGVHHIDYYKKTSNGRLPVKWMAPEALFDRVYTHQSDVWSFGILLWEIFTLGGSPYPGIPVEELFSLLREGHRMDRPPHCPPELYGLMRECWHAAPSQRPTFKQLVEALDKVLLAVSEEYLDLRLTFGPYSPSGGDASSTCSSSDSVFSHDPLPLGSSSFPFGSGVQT
T4 sequence (P21802 22-821): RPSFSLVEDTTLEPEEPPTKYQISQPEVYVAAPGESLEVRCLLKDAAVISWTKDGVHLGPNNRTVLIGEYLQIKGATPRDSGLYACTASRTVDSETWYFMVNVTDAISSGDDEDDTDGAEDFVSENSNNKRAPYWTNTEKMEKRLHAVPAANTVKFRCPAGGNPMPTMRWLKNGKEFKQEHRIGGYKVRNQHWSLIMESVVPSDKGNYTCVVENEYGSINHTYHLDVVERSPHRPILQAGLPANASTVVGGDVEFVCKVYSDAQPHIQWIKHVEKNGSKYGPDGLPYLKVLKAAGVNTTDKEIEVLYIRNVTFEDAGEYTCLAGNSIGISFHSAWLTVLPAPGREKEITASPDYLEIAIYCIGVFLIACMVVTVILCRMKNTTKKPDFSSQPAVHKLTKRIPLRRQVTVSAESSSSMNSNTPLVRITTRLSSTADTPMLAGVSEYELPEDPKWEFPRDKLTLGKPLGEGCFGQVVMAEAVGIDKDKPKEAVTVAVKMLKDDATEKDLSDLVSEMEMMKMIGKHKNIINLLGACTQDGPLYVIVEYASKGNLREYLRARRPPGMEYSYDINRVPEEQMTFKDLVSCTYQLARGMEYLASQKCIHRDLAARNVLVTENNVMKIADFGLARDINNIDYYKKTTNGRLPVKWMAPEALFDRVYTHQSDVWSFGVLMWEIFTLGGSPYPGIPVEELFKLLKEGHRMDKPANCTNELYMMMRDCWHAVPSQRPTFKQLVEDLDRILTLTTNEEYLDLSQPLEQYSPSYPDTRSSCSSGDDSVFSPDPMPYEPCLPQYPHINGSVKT
T3 sequence (P11362 22-822): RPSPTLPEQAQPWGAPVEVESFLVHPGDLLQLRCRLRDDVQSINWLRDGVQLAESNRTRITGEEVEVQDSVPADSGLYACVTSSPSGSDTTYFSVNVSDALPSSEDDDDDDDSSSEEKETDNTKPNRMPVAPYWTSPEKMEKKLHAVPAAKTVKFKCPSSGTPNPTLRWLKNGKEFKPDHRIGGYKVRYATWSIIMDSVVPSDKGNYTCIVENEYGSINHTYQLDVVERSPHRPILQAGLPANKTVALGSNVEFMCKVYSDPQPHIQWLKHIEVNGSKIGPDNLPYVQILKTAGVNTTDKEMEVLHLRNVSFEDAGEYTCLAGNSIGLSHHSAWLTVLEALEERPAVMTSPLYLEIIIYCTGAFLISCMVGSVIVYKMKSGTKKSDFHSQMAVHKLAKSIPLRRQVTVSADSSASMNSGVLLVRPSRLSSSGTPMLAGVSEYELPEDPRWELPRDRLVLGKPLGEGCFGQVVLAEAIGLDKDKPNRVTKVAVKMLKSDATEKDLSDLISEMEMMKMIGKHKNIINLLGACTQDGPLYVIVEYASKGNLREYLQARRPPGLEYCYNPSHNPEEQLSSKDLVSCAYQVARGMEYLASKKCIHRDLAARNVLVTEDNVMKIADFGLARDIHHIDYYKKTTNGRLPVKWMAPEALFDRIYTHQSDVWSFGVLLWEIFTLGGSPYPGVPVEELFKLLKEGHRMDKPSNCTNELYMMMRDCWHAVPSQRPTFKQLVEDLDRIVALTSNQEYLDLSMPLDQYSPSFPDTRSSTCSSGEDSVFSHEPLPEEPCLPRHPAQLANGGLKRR
T1 sequence (P22607 23-806): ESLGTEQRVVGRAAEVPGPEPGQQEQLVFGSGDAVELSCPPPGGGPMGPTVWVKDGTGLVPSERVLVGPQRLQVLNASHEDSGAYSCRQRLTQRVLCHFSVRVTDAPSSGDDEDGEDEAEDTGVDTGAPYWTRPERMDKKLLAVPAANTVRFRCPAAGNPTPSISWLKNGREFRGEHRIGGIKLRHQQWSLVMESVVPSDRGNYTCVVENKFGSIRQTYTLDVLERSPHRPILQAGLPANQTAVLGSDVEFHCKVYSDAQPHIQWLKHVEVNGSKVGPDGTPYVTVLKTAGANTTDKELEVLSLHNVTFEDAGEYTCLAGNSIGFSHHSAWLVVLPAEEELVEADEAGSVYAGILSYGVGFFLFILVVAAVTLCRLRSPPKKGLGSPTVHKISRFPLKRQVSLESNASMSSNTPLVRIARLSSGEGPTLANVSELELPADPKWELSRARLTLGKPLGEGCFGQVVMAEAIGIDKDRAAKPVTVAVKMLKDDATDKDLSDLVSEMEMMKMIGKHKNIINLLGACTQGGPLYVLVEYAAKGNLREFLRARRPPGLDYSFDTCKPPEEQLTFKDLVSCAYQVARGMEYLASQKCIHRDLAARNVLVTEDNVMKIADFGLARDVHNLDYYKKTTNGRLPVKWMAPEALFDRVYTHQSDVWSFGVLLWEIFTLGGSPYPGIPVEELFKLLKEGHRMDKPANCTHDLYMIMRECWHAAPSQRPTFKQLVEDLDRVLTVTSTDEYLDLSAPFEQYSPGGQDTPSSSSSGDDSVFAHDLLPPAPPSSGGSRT

IC50 [1] [nM]	IC50 (wild type FGFR-3) [nM]	IC50 (wild type FGFR-4) [nM]	IC50 (wild type FGFR-1) [nM]	IC50 (wild type FGFR-2) [nM]	SMILES
280	–	–	–	–	C=CC(=O)Nc1cccc(C)c1Nc1ncc2cc(-c3c(Cl)c(OC)cc(OC)c3Cl)ccc2n1 [BLU9931, reference compound]
490	> 1000	< 50	> 1000	> 1000	C=CC(=O)Nc1ccc(Cn2c(=O)c(-c3c(Cl)c(OC)cc(OC)c3Cl)cc3cnc(Nc4c(C)cccc4NC(=O)C=C)nc32)cc1 [CY-15-2, N-(4-((2-((2-acrylamido-6-methylphenyl)amino)-6-(2,6-dichloro-3,5-dimethoxyphenyl)-7-oxopyrido[2,3-d]pyrimidin-8(7H)-yl)methyl)phenyl)acrylamide]
660	> 1000	< 50	> 1000	> 1000	C=CC(=O)Nc1ccc(CCn2c(=O)c(-c3c(Cl)c(OC)cc(OC)c3Cl)cc3cnc(Nc4c(C)cccc4NC(=O)C=C)nc32)cc1 [CY-15-3, N-(4-(2-(2-(2-acrylamido-6-methylphenylamino)-6-(2,6-dichloro-3,5-dimethoxyphenyl)-7-oxopyrido[2,3-d]pyrimidin-8(7H)-yl)ethyl)phenyl)acrylamide]
–	–	< 50	–	–	C=CC(=O)Nc1cccc(C)c1Nc1ncc2cc(-c3c(Cl)c(OC)cc(OC)c3Cl)c(=O)n(CC3CN(C(=O)/C=C/CN(C)C)C3)c2n1 [CY-15-4]
–	–	< 50	–	–	C=CC(=O)Nc1cccc(C)c1Nc1ncc2cc(-c3c(Cl)c(OC)cc(OC)c3Cl)c(=O)n(CC3CCN(C(=O)/C=C/CN(C)C)C3)c2n1 (stereo not shown) [CY-15-5]
–	–	< 50	–	–	C=CC(=O)Nc1cccc(C)c1Nc1ncc2cc(-c3c(Cl)c(OC)cc(OC)c3Cl)c(=O)n(CC3CCN(C(=O)/C=C/CN(C)C)CC3)c2n1 [CY-15-6]
–	–	< 50	–	–	C=CC(=O)Nc1cccc(C)c1Nc1ncc2cc(-c3c(Cl)c(OC)cc(OC)c3Cl)c(=O)n(CCN3CCN(C(=O)C=C)CC3)c2n1 [CY-15-7]
–	–	< 50	–	–	C=CC(=O)Nc1cccc(C)c1Nc1ncc2cc(-c3c(Cl)c(OC)cc(OC)c3Cl)c(=O)n(CCCN3CCN(C(=O)C=C)CC3)c2n1 [CY-15-8]
